Like-named read-outs stand apart in the source and are kept apart here.
Legend:
HSV-1 strain F or KOS = experiment: Inhibition of herpes simplex virus (HSV-1) replication in cell culture (BHK-21 cells, glycoprotein C ELISA); format: cell-based
Method in brief: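 Replication readout: ELISA for HSV-1 late glycoprotein C (mAb C11, peroxidase-OPD, 450 nm) on glutaraldehyde-fixed cells. Monolayers (~50,000 cells/well) were infected with strain F or KOS (MOI 0.05 PFU/cell), then incubated 24 h at 37° with compound in 2% FBS α-MEM. EC50 derived from % inhibition.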

HCMV (strain AD169) = experiment: Inhibition of HCMV replication, ELISA assay (Hs-68 cells); format: cell-based, Human Cytomegalovirus (HCMV); conditions: read-out: ELISA CMV EC50
Method in brief: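 EC50 derived from % inhibition of viral replication, read as p28 late-protein ELISA signal (mAb UL99, peroxidase/OPD, 450 nm) on fixed cells. Read-out came 8 days post-infection at 37 °C in DMEM with 5% FBS plus compound, after 2 h adsorption of AD169 at MOI 0.01 PFU/cell onto near-confluent Hs-68 cells.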

[1] = Human alphaherpesvirus 1, BHK-21, Group 2 Table 1 entries
[2] = Human betaherpesvirus 5, AD169, Hs68, Group 2 Table 1 entries
[3] = Human alphaherpesvirus 1, BHK-21, Group 1 Table 6 entries
[4] = Human betaherpesvirus 5, AD169, Hs68, Group 1 Table 6 entries
[5] = Human alphaherpesvirus 1, BHK-21, Group 1 Table 5 entries
[6] = Human betaherpesvirus 5, AD169, Hs68, Group 1 Table 5 entries

Row | Compound | EC50 (HSV-1 strain F or KOS; [1]) | EC50 (HCMV (strain AD169); [2]) | EC50 (HSV-1 strain F or KOS; [3]) | EC50 (HCMV (strain AD169); [4]) | further results
1 | CCCCN(CCCC)C(=O)C(=O)Nc1ccc(-c2csc(N)n2)cc1 [Example 1, N-{4-(2-Amino-4-thiazolyl)phenyl}-N',N'-dibutylethanediamide] | – | – | – | – | EC50 (HSV-1 strain F or KOS; Human alphaherpesvirus 1, BHK-21, Group 2 Table 2 entries): 2900 nM; EC50 (HCMV (strain AD169); Human betaherpesvirus 5, AD169, Hs68, Group 2 Table 2 entries): 2600 nM
2 | CCCCN(CCCC)C(=O)Nc1ccc(-c2csc(N)n2)cc1 [Example 1, N-{4-(2-Amino-4-thiazolyl)phenyl}-N,N-dibutylurea] | 800 nM | 4100 nM | – | – | –
3 | Nc1nc(-c2ccc(NC(=O)[C@@H]3CCC(=O)N3Cc3ccccc3)cc2)cs1 [Example 2] | – | – | 2600 nM | 22000 nM | –
4 | Nc1nc(-c2ccc(NC(=O)[C@H]3CCC(=O)N3CC3CCCCC3)cc2)cs1 [Example 3] | – | – | 2100 nM | 1400 nM | –
5 | CN(CCc1ccccn1)C(=O)Nc1ccc(-c2csc(N)n2)cc1 [Example 4] | 1400 nM | 126000 nM | – | – | –
6 | Nc1nc(-c2ccc(NC(=O)[C@@H]3CCCN3C(=O)c3ccccc3)cc2)cs1 [Example 5] | – | – | 170 nM | 63000 nM | –
7 | Nc1nc(-c2ccc(NC(=O)[C@@H]3CCCN3C(=O)C3CCCCC3)cc2)cs1 [Example 6] | – | – | 16 nM | 28000 nM | –
8 | CC(C)(C)OC(=O)N1CCC[C@@H]1C(=O)Nc1ccc(-c2csc(N)n2)cc1 [Example 8] | – | – | 1800 nM | 11000 nM | –
9 | Nc1nc(-c2ccc(NC(=O)[C@H]3CCCN3C(=O)c3ccccc3)cc2)cs1 [Example 9] | – | – | 590 nM | 300 nM | –
10 | CN(C(=O)OC(C)(C)C)[C@@H](Cc1ccccc1)C(=O)Nc1ccc(-c2csc(N)n2)cc1 [Example 10] | – | – | – | – | EC50 (HSV-1 strain F or KOS; [5]): 59 nM; EC50 (HCMV (strain AD169); [6]): 2500 nM
11 | Nc1nc(-c2ccc(NC(=O)[C@H]3CCCN3C(=O)C3CCCCC3)cc2)cs1 [Example 10] | – | – | 25 nM | 600 nM | –
12 | CCCC(CCC)NC(=O)Nc1ccc(-c2csc(N)n2)cc1 [Example 11] | 8000 nM | 1300 nM | – | – | –
13 | Nc1nc(-c2ccc(NC(=O)[C@H](Cc3ccccc3)N(Cc3ccccc3)C(=O)C3CCCCC3)cc2)cs1 [Example 11] | – | – | – | – | EC50 (HSV-1 strain F or KOS; [5]): 510 nM; EC50 (HCMV (strain AD169); [6]): 1400 nM
14 | CC(C)(C)NC(=O)Nc1ccc(-c2csc(N)n2)cc1 [Example 12] | 4400 nM | 6000 nM | – | – | –
15 | CN(CCc1ccccn1)C(=O)Nc1ccc(-c2csc(NC(=O)OC(C)(C)C)n2)cc1 [Example 14] | 3200 nM | 1500 nM | – | – | –
16 | CCCCN(CCCC)C(=O)Nc1ccc(-c2csc(NC(=O)OC(C)(C)C)n2)cc1 [Example 15] | > 6000 nM | 1000 nM | – | – | –
17 | CC(C)(C)CC(=O)N[C@@H](Cc1ccccc1)C(=O)Nc1ccc(-c2csc(N)n2)cc1 [Example 19] | – | – | – | – | EC50 (HSV-1 strain F or KOS; [5]): 40 nM; EC50 (HCMV (strain AD169); [6]): 3800 nM
18 | Nc1nc(-c2ccc(NC(=O)[C@H](Cc3ccccc3)NS(=O)(=O)N3CCOCC3)cc2)cs1 [Example 25] | – | – | – | – | EC50 (HSV-1 strain F or KOS; [5]): 100 nM; EC50 (HCMV (strain AD169); [6]): 600 nM
